Experimental data as given in patent US10336762B2 (priority 2017, dated 2019).
Where two headings read alike, the source gives them in different places.

Experiments:
[1] = target: IRAK4 enzyme (Homo sapiens (Human), UniProt Q9NWZ3); experiment: biochemical; assay type: biochemical; details: IRAK4 enzyme, 500 μM ATP
[2] = tested on: TNFα; experiment: cells; assay type: cell-based, human; details: Homo sapiens, Monocyte, LPS-stimulated human monocytes, read-out: EC50 TNF

Chain of IRAK4 enzyme (Q9NWZ3 whole entry): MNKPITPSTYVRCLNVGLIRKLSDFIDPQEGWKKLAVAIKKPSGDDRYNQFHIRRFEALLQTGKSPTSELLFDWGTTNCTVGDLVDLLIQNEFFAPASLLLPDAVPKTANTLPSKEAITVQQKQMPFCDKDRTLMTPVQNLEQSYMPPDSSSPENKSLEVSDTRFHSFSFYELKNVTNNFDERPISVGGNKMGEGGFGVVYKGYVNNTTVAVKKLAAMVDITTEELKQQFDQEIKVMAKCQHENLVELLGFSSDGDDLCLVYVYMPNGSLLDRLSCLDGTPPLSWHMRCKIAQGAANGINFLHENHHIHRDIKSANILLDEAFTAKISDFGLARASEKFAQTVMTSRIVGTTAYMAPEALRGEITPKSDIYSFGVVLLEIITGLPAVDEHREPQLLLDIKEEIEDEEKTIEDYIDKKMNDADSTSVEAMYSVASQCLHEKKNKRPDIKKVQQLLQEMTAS

| Compound | IC50 ([1]; TR-FRET) [nM] | EC50 ([2]; TNFα by TR-FRET) [nM] | EC50 ([2]; TNFα content) [nM] | IC50 ([1]; TR-FRET (HTRF)) [nM] |
| --- | --- | --- | --- | --- |
| COC(=O)NC[C@H]1CN(c2ccc(Nc3cc(-c4ccc5cc(C#N)cnn45)ncc3C(=O)NC[C@@H](F)C(C)(C)O)cn2)CCO1 [Example 887, methyl (((S)-4-(5-((2-(3-cyanopyrrolo[1,2-b]pyridazin-7-yl)-5-(((R)-2-fluoro-3-hydroxy-3-methylbutyl)carbamoyl)pyridin-4-yl)amino)pyridin-2-yl)morpholin-2-yl)methyl)carbamate] | 1 | 88 |  |  |
| CC(C)(O)[C@H](F)CNC(=O)c1cnc(-c2ccc3cc(C#N)cnn23)cc1NC1CN(S(C)(=O)=O)C1 [Example 98, (R)-6-(3-cyanopyrrolo[1,2-b]pyridazin-7-yl)-N-(2-fluoro-3-hydroxy-3-methylbutyl)-4-((1-(methylsulfonyl)azetidin-3-yl)amino)nicotinamide] | 2 |  | 358 |  |
| CC(C)(O)[C@H](F)CNC(=O)c1cnc(-c2ccc3cc(C#N)cnn23)cc1Nc1ccc(-c2nnco2)cc1 [Example 627, (R)-4-((4-(1,3,4-oxadiazol-2-yl)phenyl)amino)-6-(3-cyanopyrrolo[1,2-b]pyridazin-7-yl)-N-(2-fluoro-3-hydroxy-3-methylbutyl)nicotinamide] |  |  | 30 | < 1 |
| CC(C)(O)[C@H](F)CNC(=O)c1cnc(-c2ccc3cc(C#N)cnn23)cc1Nc1cnn(CC(F)(F)F)c1 [Example 49, (R)-6-(3-cyanopyrrolo[1,2-b]pyridazin-7-yl)-N-(2-fluoro-3-hydroxy-3-methylbutyl)-4-((1-(2,2,2-trifluoroethyl)-1H-pyrazol-4-yl)amino)nicotinamide] | < 1 |  | 8 |  |
| CC(C)(O)[C@H](F)CNC(=O)c1cnc(-c2ccc3cc(C#N)cnn23)cc1Nc1cnn(-c2ccccn2)c1 [Example 755, (R)-6-(3-cyanopyrrolo[1,2-b]pyridazin-7-yl)-N-(2-fluoro-3-hydroxy-3-methylbutyl)-4-((1-(pyridin-2-yl)-1H-pyrazol-4-yl)amino)nicotinamide] |  |  | 16 | 1 |
| C#CCNC(=O)c1cnc(-c2ccc3cc(C#N)cnn23)cc1NC12CCC(O)(CC1)CC2 [Example 623, 6-(3-cyanopyrrolo[1,2-b]pyridazin-7-yl)-4-((4-hydroxybicyclo[2.2.2]octan-1-yl)amino)-N-(prop-2-yn-1-yl) nicotinamide] |  |  | 63 | < 1 |
| CC(C)(O)[C@H](F)CNC(=O)c1cnc(-c2ccc3cc(C#N)cnn23)cc1N[C@H]1CCC[C@H](O)C1 [Example 63, 6-(3-cyanopyrrolo[1,2-b]pyridazin-7-yl)-N-((R)-2-fluoro-3-hydroxy-3-methylbutyl)-4-(((1S,3S)-3-hydroxycyclohexyl)amino) nicotinamide] | < 1 |  | 57 |  |
| C[C@]1(O)C[C@@H](Nc2cc(-c3ccc4cc(C#N)cnn34)ncc2C(=O)NCC#N)C1 [Example 388, N-(cyanomethyl)-6-(3-cyanopyrrolo[1,2-b]pyridazin-7-yl)-4-(((1s,3s)-3-hydroxy-3-methylcyclobutyl)amino) nicotinamide] | 1 |  | 96 |  |
| CC(C)(O)[C@H](F)CNC(=O)c1cnc(-c2ccc3cc(C#N)cnn23)cc1Nc1cnc2c(c1)OCCN2 [Example 855, (R)-6-(3-cyanopyrrolo[1,2-b]pyridazin-7-yl)-4-((3,4-dihydro-2H-pyrido[3,2-b][1,4]oxazin-7-yl)amino)-N-(2-fluoro-3-hydroxy-3-methylbutyl)nicotinamide] | < 1 | 9 |  |  |
| CC(C)(O)[C@H](F)CNC(=O)c1cnc(-c2ccc3cc(C#N)cnn23)cc1Nc1ccncc1 [Example 593, (R)-6-(3-cyano-pyrrolo[1,2-b]pyridazin-7-yl)-N-(2-fluoro-3-hydroxy-3-methylbutyl)-4-(pyridin-4-ylamino) nicotinamide] |  |  | 143 | 2 |
